ChEMBL document CHEMBL1201862, “PubChem BioAssay data set” (2004)
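Method: 48-hour compound exposure of cells in 96-well plates, five concentrations, linear interpolation of endpoints. Abbreviation: GI50, concentration required for 50% inhibition of growth.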 Active and inactive are the calls of the source. Rule as the data show it: active = GI50 up to about 1.1 µM and inactive = higher.

Legend:
Assay in all cases: NCI-60 cell line screen, 48 h
UO-31 = tested on: UO-31
SK-MEL-5 = tested on: SK-MEL-5
SK-MEL-28 = tested on: SK-MEL-28
MDA-N = tested on: MDA-N
SK-MEL-2 = tested on: SK-MEL-2
Hs-578T = tested on: Hs-578T
HCT-15 = tested on: HCT-15
SNB-19 = tested on: SNB-19
NCI-H226 = tested on: NCI-H226
IGROV-1 = tested on: IGROV-1
OVCAR-5 = tested on: OVCAR-5
HL-60 = tested on: HL-60
SW-620 = tested on: SW-620
786-0 = tested on: 786-0
SF-295 = tested on: SF-295
SF-539 = tested on: SF-539
KM12 = tested on: KM12
SK-OV-3 = tested on: SK-OV-3
NCI-H522 = tested on: NCI-H522
A549 = tested on: A549

SMILES	GI50 (UO-31)	GI50 (SK-MEL-5)	GI50 (SK-MEL-28)	GI50 (MDA-N)	GI50 (SK-MEL-2)	GI50 (Hs-578T)	GI50 (HCT-15)	GI50 (SNB-19)	GI50 (NCI-H226)	GI50 (IGROV-1)	GI50 (OVCAR-5)	GI50 (HL-60)	GI50 (SW-620)	GI50 (786-0)	GI50 (SF-295)	GI50 (SF-539)	GI50 (KM12)	GI50 (SK-OV-3)	GI50 (NCI-H522)	GI50 (A549)
CC(C)[C@@H]1NC(=O)[C@H]2N=C(O[C@@H]2C)[C@@H]2CCCN2C(=O)[C@H](Cc2ccccc2)NC(=O)[C@@H]2CSC(=N2)[C@@H](Cc2ccccc2)NC(=O)[C@@H]2CSC1=N2	> 50 µM (inactive)	> 50 µM (inactive)	> 50 µM (inactive)	> 50 µM (inactive)	> 50 µM (inactive)	32.8 µM (inactive)	33.2 µM	> 50 µM (inactive)	38.5 µM (inactive)	> 50 µM (inactive)	> 50 µM (inactive)	7.46 µM (inactive)	> 50 µM (inactive)	> 50 µM (inactive)	34.6 µM (inactive)	17.5 µM (inactive)	25.6 µM (inactive)	> 50 µM (inactive)	29.1 µM (inactive)	18.7 µM (inactive)
COc1ccc(-c2oc3cc(OC)c(OC)c(OC)c3c(=O)c2OC)cc1OC [HEXAMETHOXYFLAVONE]	79.1 µM (inactive)	53.8 µM (inactive)	> 100 µM (inactive)	> 100 µM (inactive)	> 100 µM (inactive)	> 100 µM (inactive)	> 100 µM	> 100 µM (inactive)	> 100 µM (inactive)	> 100 µM (inactive)	> 100 µM (inactive)	20.8 µM (inactive)	> 100 µM (inactive)	> 100 µM (inactive)	> 100 µM (inactive)	> 100 µM (inactive)	> 100 µM (inactive)	> 100 µM (inactive)	> 100 µM (inactive)	> 100 µM (inactive)
COc1ccc(CC2NCCc3cc(OC)c(OC)cc32)cc1Br (stereo not given)	28.2 µM (inactive)	13 µM (inactive)	16.6 µM (inactive)	18.2 µM (inactive)	27.2 µM (inactive)	19.2 µM (inactive)	> 100 µM	78.3 µM (inactive)	18.6 µM (inactive)	35 µM (inactive)	19.5 µM (inactive)	14 µM (inactive)	30.9 µM (inactive)	39.4 µM (inactive)	21 µM (inactive)	77.8 µM (inactive)	21.6 µM (inactive)	96.4 µM (inactive)	34.4 µM (inactive)	56 µM (inactive)
CN(C)[C@H]1CC[C@H]2[C@@H]3CCC4C[C@@H](NC(=O)NC(Cc5ccccc5)c5nccs5)CC[C@]4(C)[C@H]3CC[C@]12C (stereo not given in full)	1.69 µM (inactive)	0.789 µM (active)	1.11 µM (active)	0.35 µM (active)	1.1 µM (active)	2.19 µM (inactive)	0.687 µM	1.79 µM (inactive)	2.09 µM (inactive)	1.87 µM (inactive)	1.76 µM (inactive)	0.218 µM (active)	0.687 µM (active)	0.512 µM (active)	0.757 µM (active)	1.75 µM (inactive)	1.12 µM (inactive)	1.67 µM (inactive)	2 µM (inactive)	1.58 µM (inactive)
